One assay relates to α-syn foci. Put plainly: α-syn-GFP localization / foci microscopy in yeast. The format is cell-based. To be noted: α-syn-expressing yeast. Here is the method: Logarithmic growing raffinose cultures were induced with galactose for five hours in the presence or absence of the indication concentration of ABI. Cells were centrifuged, media discarded, and then fixed with 4% paraformaldehyde in 1×PBS for 1 hr. The fixed culture was centrifuged, and the pellet resuspended in 0.4% paraformaldehyde in 1×PBS and kept at 4° C. Single plain images were taken at 100× magnification with a Nikon Eclipse Ti microscope.

A further assay has as its target T1, Nedd4 (Homo sapiens, UniProt P46934).
T1 sequence (P46934 1-1319): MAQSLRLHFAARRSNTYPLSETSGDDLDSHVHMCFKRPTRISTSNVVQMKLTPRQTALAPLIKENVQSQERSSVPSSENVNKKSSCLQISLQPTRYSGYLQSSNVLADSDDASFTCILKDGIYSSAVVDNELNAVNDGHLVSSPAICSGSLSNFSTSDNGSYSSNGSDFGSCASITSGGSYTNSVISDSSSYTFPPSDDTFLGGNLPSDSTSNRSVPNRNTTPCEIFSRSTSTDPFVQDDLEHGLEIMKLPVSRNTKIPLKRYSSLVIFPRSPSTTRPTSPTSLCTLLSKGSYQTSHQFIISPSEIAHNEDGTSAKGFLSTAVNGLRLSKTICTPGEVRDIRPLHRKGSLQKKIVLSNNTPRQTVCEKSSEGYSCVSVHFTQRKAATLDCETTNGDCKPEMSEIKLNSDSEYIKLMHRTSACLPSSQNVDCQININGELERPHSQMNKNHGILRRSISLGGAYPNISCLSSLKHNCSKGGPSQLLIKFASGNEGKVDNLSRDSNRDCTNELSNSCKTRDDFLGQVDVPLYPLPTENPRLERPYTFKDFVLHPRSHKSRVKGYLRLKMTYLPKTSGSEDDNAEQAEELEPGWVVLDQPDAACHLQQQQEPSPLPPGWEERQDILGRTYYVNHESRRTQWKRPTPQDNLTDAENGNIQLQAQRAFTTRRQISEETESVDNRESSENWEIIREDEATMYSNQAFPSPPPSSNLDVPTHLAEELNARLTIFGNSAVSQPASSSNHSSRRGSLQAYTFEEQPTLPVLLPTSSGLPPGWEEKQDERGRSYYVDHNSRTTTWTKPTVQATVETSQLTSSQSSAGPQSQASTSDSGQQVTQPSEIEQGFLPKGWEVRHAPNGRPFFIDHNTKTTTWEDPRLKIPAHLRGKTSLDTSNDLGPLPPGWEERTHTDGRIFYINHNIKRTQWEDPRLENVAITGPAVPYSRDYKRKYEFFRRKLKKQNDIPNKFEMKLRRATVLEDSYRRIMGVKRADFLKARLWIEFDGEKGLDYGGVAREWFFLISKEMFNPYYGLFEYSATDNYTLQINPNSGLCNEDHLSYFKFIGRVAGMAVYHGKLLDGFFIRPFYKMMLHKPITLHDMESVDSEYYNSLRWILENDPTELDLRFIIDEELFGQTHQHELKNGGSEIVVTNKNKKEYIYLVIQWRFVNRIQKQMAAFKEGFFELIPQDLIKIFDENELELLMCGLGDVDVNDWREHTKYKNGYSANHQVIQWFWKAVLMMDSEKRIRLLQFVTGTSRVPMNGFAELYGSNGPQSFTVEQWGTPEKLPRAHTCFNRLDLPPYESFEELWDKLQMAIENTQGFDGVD
The settings on record: pers. comm.; cited from earlier work.

A further assay has as its system aSyn^A53T iPS neurons. The assay is described as follows: ER protein trafficking (nicastrin, GCase, Endo H) in patient iPS neurons. The settings on record: human cortical neurons from iPSCs of a patient carrying α-syn mutations.
The next assay relates to TDP-43. Put plainly: Yeast growth rescue screen, cells expressing TDP-43. Type of assay: cell-based. To be noted: yeast expressing TDP-43. The text has this: Thus, rescue was not targeted to a common feature of misfolded protein toxicity, but rather reflected the ability of ABI to target specific pathologies related to α-syn (and to a lesser degree TDP-43).
Yeast strains expressing toxic proteins have been described previously (6, 9, 33, 34) (Table 1). All strains have either single or multiple inserts for galactose-inducible expression. In addition, all stains have either deletions of the Δpdr1::KanMX and Δpdr3::KanMX or Δpdr5::KanMX to reduce efflux of compounds and required compound dosing. Yeast were cultured in complete synthetic media (CSM) and an appropriate dropout (minus HIS or URA) to maintain plasmids if required. For galactose-induction experiments, overnight cultures were grown in CSM/2% glucose to saturation and diluted 1:20 into CSM/2% raffinose for ˜2 generations. Cultures were then diluted into CSM/2% galactose at an optimum OD600 for the experiment (see ‘Growth assays’).
Starting cultures for all dose-response assays were established as described above. All growth assays were carried out in 384 well-format. Source plates were assembled in 96 well plates using multichannel pipettes to dilute rows in 1.6-fold serial dilutions of CSMGal. […] Plates were then read with a Tecan Saphire plate reader at OD600. […]

The next assay deals with α-syn. Put plainly: Western blot of α-syn levels in yeast. Type of assay: cell-based. The settings on record: α-syn-expressing yeast. Here is the method:
Protein analysis of α-syn-GFP was performed in NoTox, InTox, and HiTox strains with ABI1 treatment at indicated concentrations. Log phase CSM/2% raffinose cultures were induced with 2% galactose for 5 hours with DMSO or ABI1. Cultures were normalized to cell density and cell pellets prepared for SDS-PAGE. Cell pellets were boiled in SDS-loading dye for 15′, centrifuged, and resolved by 4-12% SDS-PAGE. […] From the same gel, total protein was detected by coomassie staining. Both blots and coomassie-stained gels were scanned using the Li-Cor Odyssey imaging system and quantitated. Values were expressed as α-syn normalized to total protein (FIG. 1E). Significance was determined using a one-way ANOVA with Tukey's test of significance.
(In general: A western blot detects proteins with antibodies after separation by electrophoresis.)

Entries after “also recorded” stand apart in the source; their conditions may differ.

Experimental for aSyn^A53T iPS neurons: Trafficking from ER was assessed by probing for nicastrin and GCase with or without Endo H treatment. Data are normalized using corrected/A53T ratios established in FIG. 6 to more faithfully depict the biological significance of the small molecule effects (n=3). […] All data represented as mean±SEM (*: p<0.05; **: p<0.01, two tail t-test compared to control condition).
Trafficking from ER was assessed by probing for nicastrin and GCase with or without Endo H treatment.

As for `Cc1cccc(-n2cnc3cc(C(=O)NCc4ccccc4Cl)ccc32)c1` [ABI, N-(2-chlorobenzyl)-1-(m-tolyl)-1H-benzo[d]imidazole-5-carboxamide], the “accumulation of cytoplasmic α-syn foci / inclusions” value with α-syn foci is on record as “prevented the accumulation of cytoplasmic α-syn foci”. Also, at Nedd4, the “ubiquitination of recombinant Nedd4 in vitro” value was “did not enhance ubiquitination”. Further, the “ER-to-Golgi protein trafficking defect” value in the assay on aSyn^A53T iPS neurons is on record as “ameliorated an ER-to-Golgi protein trafficking defect”. The “efficacy against TDP-43 (restoration of growth)” value with TDP-43 was “modest efficacy”. Besides, the α-syn levels entry in the assay on α-syn is reported as “did not reverse α-syn phenotypes by reducing α-syn levels; also recorded: did not detect changes”.

The values above are taken from patent US9790188B2, “Benzimidazole derivatives and uses thereof” (Whitehead Institute for Biomedical Research, priority 2013, dated 2017).
